In general, melting point refers to the temperature, or range, at which the solid turns liquid.

`O=C(Nc1ncc(C(=O)NCCO)s1)c1cn(Cc2ccc(Cl)c(Cl)c2)nn1` [Example 35, 1-[(3,4-Dichlorophenyl)methyl]-N-(5-{[(2-hydroxyethyl)amino]carbonyl}-1,3-thiazol-2-yl)-1H-1,2,3-triazole-4-carboxamide]: the melting point came out at 274.8 °C.

`NC(=O)c1cnc(NC(=O)c2cn(Cc3ccc(Cl)c(Cl)c3)nn2)s1` [Example 36, N-[5-(Aminocarbonyl)-1,3-thiazol-2-yl]-1-[(3,4-dichlorophenyl)methyl]-1H-1,2,3-triazole-4-carboxamide] returned a melting point of 280.9 °C.

`Cc1nc(NC(=O)c2cn(Cc3ccc(Cl)c(Cl)c3)nn2)sc1C(N)=O` [Example 37, N-[5-(Aminocarbonyl)-4-methyl-1,3-thiazol-2-yl]-1-[(3,4-dichlorophenyl)methyl]-1H-1,2,3-triazole-4-carboxamide] came in with a melting point of 283 °C.

For the compound `Cc1c(C(=O)Nc2nncs2)nnn1Cc1ccc(Cl)c(Cl)c1` [Example 38, 1-[(3,4-Dichlorophenyl)methyl]-5-methyl-N-1,3,4-thiadiazol-2-yl-1H-1,2,3-triazole-4-carboxamide], the melting point turned out to be 215.6 °C.

As for `Cc1c(C(=O)Nc2ncc(CO)s2)nnn1Cc1ccc(Cl)c(Cl)c1` [Example 39, 1-[(3,4-Dichlorophenyl)methyl]-N-[5-(hydroxymethyl)-1,3-thiazol-2-yl]-5-methyl-1H-1,2,3-triazole-4-carboxamide], the melting point worked out at 170.5 °C.

The compound `COCc1c(C(=O)Nc2ncc(CO)s2)nnn1Cc1ccc(Cl)c(Cl)c1` [Example 40, 1-[(3,4-Dichlorophenyl)methyl]-N-[5-(hydroxymethyl)-1,3-thiazol-2-yl]-5-[(methyloxy)methyl]-1H-1,2,3-triazole-4-carboxamide] yielded a melting point of 205 °C.

Compound `Cc1nc(NC(=O)c2nnn(Cc3ccc(Cl)c(Cl)c3)c2C)sc1CO` [Example 41, 1-[(3,4-Dichlorophenyl)methyl]-N-[5-(hydroxymethyl)-4-methyl-1,3-thiazol-2-yl]-5-methyl-1H-1,2,3-triazole-4-carboxamide] gave a melting point of 161.8 °C.

Regarding `Cc1c(C(=O)Nc2nnc(CO)s2)nnn1Cc1ccc(Cl)c(Cl)c1` [Example 42, 1-[(3,4-Dichlorophenyl)methyl]-N-[5-(hydroxymethyl)-1,3,4-thiadiazol-2-yl]-5-methyl-1H-1,2,3-triazole-4-carboxamide], the melting point is 153.6 °C.

Consider `Cc1c(C(=O)Nc2cc(CO)ccn2)nnn1Cc1ccc(Cl)c(Cl)c1` [Example 44, 1-[(3,4-Dichlorophenyl)methyl]-N-[4-(hydroxymethyl)-2-pyridinyl]-5-methyl-1H-1,2,3-triazole-4-carboxamide], for which the melting point turned out to be 191 °C.

`COc1ccc2nc(C(=O)Nc3nnn(Cc4ccc(Cl)c(Cl)c4)c3C)sc2c1` [Example 45, N-{1-[(3,4-Dichlorophenyl)methyl]-5-methyl-1H-1,2,3-triazol-4-yl}-6-(methyloxy)-1,3-benzothiazole-2-carboxamide] registered a melting point of 176 °C.

Values taken from patent publication US8207204B2, “Triazole derivatives as SCD inhibitors” (GlaxoSmithKline LLC, priority 2007, dated 2012).
